Measurements as given in patent US5344846A, “Compositions and methods for inhibiting deoxyhypusine synthase and the growth of cells” (The United States of America as represented by the …, priority 1992, dated 1994).
Entries after “also recorded” stand apart in the source; their conditions may differ.

Experiments:
[1] = target: T1, deoxyhypusine synthase from rat testis (Rattus norvegicus, UniProt Q6AY53); conditions: cited from earlier work
T1 construct: as catalyzed by deoxyhypusine synthase from rat testis; from tissue; host or cells: rat testis
T1 sequence (Q6AY53 1-369): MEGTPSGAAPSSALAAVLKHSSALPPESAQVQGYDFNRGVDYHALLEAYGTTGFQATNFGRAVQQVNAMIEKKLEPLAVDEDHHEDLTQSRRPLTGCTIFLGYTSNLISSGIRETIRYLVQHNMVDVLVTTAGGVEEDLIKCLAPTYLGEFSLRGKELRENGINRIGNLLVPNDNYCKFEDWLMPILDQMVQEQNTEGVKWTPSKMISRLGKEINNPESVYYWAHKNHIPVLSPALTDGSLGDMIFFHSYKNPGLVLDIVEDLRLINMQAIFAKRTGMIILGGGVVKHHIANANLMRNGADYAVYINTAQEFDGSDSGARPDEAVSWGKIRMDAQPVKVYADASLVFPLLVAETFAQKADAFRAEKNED

deoxyhypusine synthase [2] = target: T2, deoxyhypusine synthase (Rattus norvegicus, UniProt Q6AY53); conditions: earlier publications; cited from earlier work
T2 construct: full-length homotetramer; substrate was human eIF-5A precursor expressed in E. coli
T2 sequence (Q6AY53 1-369): T1 sequence (Q6AY53 1-369)

[3] = tested on: deoxyhypusine synthase from HTC cells; conditions: cited from earlier work; for inhibition of deoxyhypusine synthase: 20 μM inhibitor, 1 μM spermidine, precursor from DFMO-treated HTC cells
[4] = cited from earlier work
[5] = target: T1, deoxyhypusine synthase from rat testis; test: Inhibition of deoxyhypusine synthase ([3H]deoxyhypusine formation from [3H]spermidine), IC50/Ki; assay type: biochemical; conditions: for inhibition of deoxyhypusine synthase (in words): pH 9.3, 37° C., 1 hour, 2.4 μM [3H]spermidine; for relative inhibitory potency (in words): comparison with parent amine, bisguanylated counterpart or another inhibitor
Experimental: The enzyme assay was performed as previously described (see Wolff et al. (1990) J. Biol. Chem. 265:4793-4799; and Park et al. (1991) J. Biol. Chem. 266:7988-7994). A typical assay mixture included 0.2M glycine, 1 mM dithiothreitol, 0.5 mM NAD^+, 2.4 micromolar (μM) [1,8-^3 H] spermidine, 1 μM ec-eIF-5A(Lys), 25 micrograms (μg) bovine serum albumin, and 3-15 units of enzyme in a total volume of 20 microliters (μl). Incubations were carried out at pH 9.3 and 37° C. for 1 hour. […] Percent inhibition was plotted versus log inhibitor concentration in order to obtain graphic estimates of IC50 values, i.e., the concentrations inhibiting [^3 H]deoxyhypusine production by 50%. The IC50 values reported in the tables were calculated by fitting the data points to equation 1 where x=% inhibition and I is the inhibitor concentration. [formula] The nature of the inhibition was determined by plotting reciprocal velocities of [^3 H]deoxyhypusine production against reciprocals of [^3 H]spermidine concentrations at a constant fixed level of ec-eIF-5A(Lys) (1 μM) and at set inhibitor concentrations. […] Estimates of Ki values were made by fitting the data to equation 2; wherein v is the velocity of the reaction, V is the maximum velocity, S is the substrate concentration, Km is Michaeli's constant, Ki is the inhibition constant, and I is the inhibitor concentration. [formula] All fits were performed by means of an interactive curve-fitting program, MLAB, developed and modified at the National Institutes of Health to run on an IBM personal computer.

[6] = tested on: pea seedling diamine oxidase; conditions: cited from earlier work
[7] = tested on: oat seedling polyamine oxidase; conditions: cited from earlier work
deoxyhypusine synthase [8] = conditions: cited from earlier work
deoxyhypusine synthase [9] = target: T2, deoxyhypusine synthase; test: Substrate property for deoxyhypusine synthase; assay type: biochemical; conditions: conditions similar to those for N-(3-aminopropyl)cadaverine
Experimental: (See Wolff et al. (1990) J. Biol. Chem. 265:4793-4799.) The Km(app) values for the substrates, spermidine, NAD^+ and eIF-5A precursor from spermidine-depleted CHO cells, have been calculated as approximately 4, 30, and 0.08 μM, respectively.
This finding is consistent with the conclusion that this lysine is the only one in the precursor that is converted to hypusine, both in cells and in the enzyme reaction in vitro.

**Q.** What does the source list for “16-membered peptide: modeled on residues 40-55 of the human eIF-5A precursor protein and encompassing Lys^50 (IVEMSTSKTGKHGHAK; UniProt P63241 40-55, looked up, fragment)”?
**A.** inhibition by precursor-related peptide [1]: only weak inhibition; substrate or cofactor function for deoxyhypusine synthase (deoxyhypusine synthase [2]): failed to act as a substrate

**Q.** With NCCCNCC(F)(F)CCN [Compound 37, 6,6-difluorospermidine] as the molecule, how does the “inhibition of deoxyhypusine synthase” value [3] read?
**A.** 90%

**Q.** And the “Ki (in words)” value ([3]; HTC cell enzyme)?
**A.** very close to that for 1,3-diaminopropane and to the Km value for spermidine

**Q.** What about the “pKa of N1-amino group” value ([4]; N1-amino group) of the same molecule?
**A.** 10.34

**Q.** What about the “pKa of N8-amino group” value [4] of the same molecule?
**A.** 9.29

**Q.** And the “inhibition of deoxyhypusine synthase (in words)” value (shortened to “inhibition … (in words)”) [5]?
**A.** quite strong inhibitors; also recorded: effective inhibition; also recorded: act as inhibitors

**Q.** Which “inhibition of deoxyhypusine synthase” value [3] does the source give for NCCCNCCC(F)(F)CN [Compound 38, 7,7-Difluorospermidine] here?
**A.** 0%

**Q.** And the “pKa of N8-amino group” value [4]?
**A.** 6.64

**Q.** And the “inhibition … (in words)” value [5]?
**A.** devoid of inhibitory activity; also recorded: no inhibition

**Q.** What does the source list for N=C(N)NCCCCCCCCNCCCCCCCCNC(=N)N [Compound 40, guazatine]?
**A.** inhibition of pea seedling diamine oxidase [6]: known to inhibit; inhibition of oat seedling polyamine oxidase [7]: known to inhibit; inhibition of deoxyhypusine synthase (literature) (deoxyhypusine synthase [8]): strong inhibitor

**Q.** Which “relative inhibitory potency (in words)” value [5] does the source give for N=C(N)NCCCNCCCCN [Compound 51, N^1 -guanylspermidine] here?
**A.** exceeded bisguanylated spermidine (compound 53) as inhibitors; also recorded: uniformly more efficient inhibition

**Q.** What about the “inhibition … (in words)” value [5] of the same molecule?
**A.** high affinities for the enzyme

**Q.** What about the “substrate property for deoxyhypusine synthase” value (deoxyhypusine synthase [9]) of the same molecule?
**A.** Neither displayed any detectable substrate property

**Q.** For N=C(N)NCCCCNCCCN [Compound 52, N^8 -guanylspermidine], which “relative inhibitory potency (in words)” value [5] is on record?
**A.** exceeded bisguanylated spermidine (compound 53) as inhibitors; also recorded: uniformly more efficient inhibition; also recorded: somewhat more effective inhibitor than N^1 -guanylspermidine (compound 51)

**Q.** What about the “inhibition … (in words)” value [5] of the same molecule?
**A.** high affinities for the enzyme

**Q.** What about the “substrate property for deoxyhypusine synthase” value (deoxyhypusine synthase [9]) of the same molecule?
**A.** Neither displayed any detectable substrate property; also recorded: If it were, it would function as a substrate which it does not
